According to ChEMBL document CHEMBL4507293 (2021):

Assays:
[1] = biological target: cGMP-specific 3',5'-cyclic phosphodiesterase (Homo sapiens, UniProt O76074); test: Biochemical assay (PDE5A)
[2] = biological target: Proto-oncogene tyrosine-protein kinase Src (Homo sapiens) (UniProt P12931); conditions: Compound concentration 100.0 nM
[3] = biological target: Cyclin-dependent kinase 16 (Homo sapiens) (UniProt Q00536); conditions: Compound concentration 100.0 nM
[4] = biological target: Ephrin type-B receptor 3 (Homo sapiens) (UniProt P54753); conditions: Compound concentration 100.0 nM
[5] = biological target: Tyrosine-protein kinase Fes/Fps (Homo sapiens) (UniProt P07332); conditions: Compound concentration 100.0 nM
[6] = biological target: Platelet-derived growth factor receptor alpha (Homo sapiens) (UniProt P16234); conditions: Compound concentration 100.0 nM
[7] = system: Phosphatidylinositol 4,5-bisphosphate 3-kinase catalytic subunit alpha isoform (Homo sapiens), P42336 [E545A]; conditions: Compound concentration 100.0 nM
[8] = biological target: Dual specificity mitogen-activated protein kinase kinase 4 (Homo sapiens) (UniProt P45985); conditions: Compound concentration 100.0 nM
[9] = biological target: Serine/threonine-protein kinase 17A (Homo sapiens) (UniProt Q9UEE5); conditions: Compound concentration 100.0 nM
[10] = biological target: STE20/SPS1-related proline-alanine-rich protein kinase (Homo sapiens) (UniProt Q9UEW8); conditions: Compound concentration 100.0 nM
[11] = biological target: Cyclin-G-associated kinase (Homo sapiens) (UniProt O14976); conditions: Compound concentration 100.0 nM
[12] = biological target: Dual serine/threonine and tyrosine protein kinase (Homo sapiens) (UniProt Q6XUX3); conditions: Compound concentration 100.0 nM
[13] = biological target: Serine/threonine-protein kinase pim-2 (Homo sapiens) (UniProt Q9P1W9); conditions: Compound concentration 100.0 nM
[14] = biological target: Ephrin type-A receptor 4 (Homo sapiens) (UniProt P54764); conditions: Compound concentration 100.0 nM
[15] = system: Epidermal growth factor receptor (Homo sapiens), P00533 [UNDEFINED MUTATION]; conditions: Compound concentration 100.0 nM
[16] = biological target: Tyrosine-protein kinase ABL1 (Homo sapiens) (UniProt P00519); conditions: Compound concentration 100.0 nM
[17] = biological target: Tyrosine-protein kinase Tec (Homo sapiens) (UniProt P42680); conditions: Compound concentration 100.0 nM
[18] = biological target: Cyclin-dependent kinase 3 (Homo sapiens) (UniProt Q00526); conditions: Compound concentration 100.0 nM
[19] = biological target: Serine/threonine-protein kinase TAO2 (Homo sapiens) (UniProt Q9UL54); conditions: Compound concentration 100.0 nM
[20] = biological target: 5'-AMP-activated protein kinase catalytic subunit alpha-1 (Homo sapiens) (UniProt Q13131); conditions: Compound concentration 100.0 nM
[21] = system: Tyrosine-protein kinase ABL1 (Homo sapiens), P00519 [H396P]; conditions: Compound concentration 100.0 nM
[22] = biological target: 5-hydroxytryptamine receptor 6 (Homo sapiens) (UniProt P50406); conditions: Compound concentration 10.0 uM
[23] = biological target: Maternal embryonic leucine zipper kinase (Homo sapiens) (UniProt Q14680); conditions: Compound concentration 100.0 nM
[24] = biological target: Tyrosine-protein kinase BTK (Homo sapiens) (UniProt Q06187); conditions: Compound concentration 100.0 nM
[25] = biological target: NT-3 growth factor receptor (Homo sapiens) (UniProt Q16288); conditions: Compound concentration 100.0 nM
[26] = biological target: Tyrosine-protein kinase receptor TYRO3 (Homo sapiens) (UniProt Q06418); conditions: Compound concentration 100.0 nM
[27] = biological target: Tyrosine-protein kinase FRK (Homo sapiens) (UniProt P42685); conditions: Compound concentration 100.0 nM
[28] = biological target: Phosphorylase b kinase regulatory subunit alpha, liver isoform (Homo sapiens) (UniProt P46019); conditions: Compound concentration 100.0 nM
[29] = biological target: Serine/threonine-protein kinase MARK2 (Homo sapiens) (UniProt Q7KZI7); conditions: Compound concentration 100.0 nM
[30] = biological target: Mitogen-activated protein kinase 8 (Homo sapiens) (UniProt P45983); conditions: Compound concentration 100.0 nM
[31] = biological target: Death-associated protein kinase 2 (Homo sapiens) (UniProt Q9UIK4); conditions: Compound concentration 100.0 nM
[32] = system: Leucine-rich repeat serine/threonine-protein kinase 2 (Homo sapiens), Q5S007 [G2019S]; conditions: Compound concentration 100.0 nM
[33] = biological target: cGMP-dependent protein kinase 2 (Homo sapiens) (UniProt Q13237); conditions: Compound concentration 100.0 nM
[34] = biological target: Adenosine receptor A1 (Homo sapiens) (UniProt P30542); conditions: Compound concentration 10.0 uM
[35] = biological target: Prostaglandin E2 receptor EP1 subtype (Homo sapiens) (UniProt P34995); test: Prostanoid EP1 Eurofins-Panlabs radioligand binding assay; conditions: Compound concentration 10.0 uM
[36] = biological target: Alpha-2A adrenergic receptor (Homo sapiens) (UniProt P08913); test: Adrenergic alpha2A Eurofins-Panlabs radioligand binding assay; design: ligand concentration 1 nM, non-specific ligand with concentration 10 µM WB-4101, incubation time 60 min, incubation temperature 25 °C; conditions: Compound concentration 10.0 uM
[37] = biological target: Cathepsin G (Homo sapiens) (UniProt P08311); test: Inhibition of Peptidase, CTSG (Cathepsin G) at 10 µM in the Eurofins-Panlabs enzyme assay (Eurofins_assay_112510); design: substrate with concentration; conditions: Compound concentration 10.0 uM
[38] = biological target: Estrogen receptor (Homo sapiens) (UniProt P03372); conditions: Compound concentration 10.0 uM
[39] = species on record: Rattus norvegicus; test: Inhibition of Glutamate, NMDA, Phencyclidine at 10 µM in the Eurofins-Panlabs radioligand binding assay (Eurofins_assay_233000); format: protein-complex assay; conditions: Compound concentration 10.0 uM
[40] = biological target: Kappa-type opioid receptor (Homo sapiens) (UniProt P41145); conditions: Compound concentration 10.0 uM
[41] = biological target: Caspase-3 (Homo sapiens) (UniProt P42574); test: Peptidase, CASP3 (Caspase 3) Eurofins-Panlabs enzyme assay; conditions: Compound concentration 10.0 uM
[42] = biological target: Melanocortin receptor 4 (Homo sapiens) (UniProt P32245); test: Inhibition of Melanocortin MC4 at 10 µM in the Eurofins-Panlabs radioligand binding assay (Eurofins_assay_251350); design: ligand concentration 0.02 nM; conditions: Compound concentration 10.0 uM

Chain of Cyclin-dependent kinase 3 (Homo sapiens) (Q00526 whole entry, looked up): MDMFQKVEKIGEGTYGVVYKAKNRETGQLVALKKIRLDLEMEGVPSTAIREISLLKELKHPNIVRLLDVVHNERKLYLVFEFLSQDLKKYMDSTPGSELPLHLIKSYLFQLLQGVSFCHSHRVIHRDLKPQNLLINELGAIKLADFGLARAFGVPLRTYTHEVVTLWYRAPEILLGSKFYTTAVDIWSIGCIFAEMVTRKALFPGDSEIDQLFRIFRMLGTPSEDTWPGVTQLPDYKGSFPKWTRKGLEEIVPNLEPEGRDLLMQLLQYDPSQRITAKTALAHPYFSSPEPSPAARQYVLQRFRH
Chain of Tyrosine-protein kinase BTK (Homo sapiens) (Q06187 whole entry): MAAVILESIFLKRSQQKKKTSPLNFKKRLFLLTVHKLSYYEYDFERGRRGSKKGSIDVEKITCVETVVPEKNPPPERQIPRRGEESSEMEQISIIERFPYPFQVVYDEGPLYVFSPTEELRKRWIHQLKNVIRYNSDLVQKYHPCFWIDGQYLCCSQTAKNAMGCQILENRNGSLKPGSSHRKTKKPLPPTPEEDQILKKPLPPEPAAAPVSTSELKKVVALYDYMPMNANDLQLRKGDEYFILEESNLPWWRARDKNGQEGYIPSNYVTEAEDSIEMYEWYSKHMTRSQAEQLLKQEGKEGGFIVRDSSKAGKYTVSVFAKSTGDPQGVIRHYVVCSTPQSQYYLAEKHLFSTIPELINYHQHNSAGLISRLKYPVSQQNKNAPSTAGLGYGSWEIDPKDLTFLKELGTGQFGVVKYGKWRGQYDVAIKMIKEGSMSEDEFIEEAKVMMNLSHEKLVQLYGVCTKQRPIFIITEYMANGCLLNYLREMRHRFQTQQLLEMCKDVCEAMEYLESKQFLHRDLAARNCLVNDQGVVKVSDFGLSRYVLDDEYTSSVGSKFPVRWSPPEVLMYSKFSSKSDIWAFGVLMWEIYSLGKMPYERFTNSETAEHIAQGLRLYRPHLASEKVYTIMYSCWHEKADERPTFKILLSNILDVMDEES
Chain of Ephrin type-B receptor 3 (Homo sapiens) (P54753 whole entry): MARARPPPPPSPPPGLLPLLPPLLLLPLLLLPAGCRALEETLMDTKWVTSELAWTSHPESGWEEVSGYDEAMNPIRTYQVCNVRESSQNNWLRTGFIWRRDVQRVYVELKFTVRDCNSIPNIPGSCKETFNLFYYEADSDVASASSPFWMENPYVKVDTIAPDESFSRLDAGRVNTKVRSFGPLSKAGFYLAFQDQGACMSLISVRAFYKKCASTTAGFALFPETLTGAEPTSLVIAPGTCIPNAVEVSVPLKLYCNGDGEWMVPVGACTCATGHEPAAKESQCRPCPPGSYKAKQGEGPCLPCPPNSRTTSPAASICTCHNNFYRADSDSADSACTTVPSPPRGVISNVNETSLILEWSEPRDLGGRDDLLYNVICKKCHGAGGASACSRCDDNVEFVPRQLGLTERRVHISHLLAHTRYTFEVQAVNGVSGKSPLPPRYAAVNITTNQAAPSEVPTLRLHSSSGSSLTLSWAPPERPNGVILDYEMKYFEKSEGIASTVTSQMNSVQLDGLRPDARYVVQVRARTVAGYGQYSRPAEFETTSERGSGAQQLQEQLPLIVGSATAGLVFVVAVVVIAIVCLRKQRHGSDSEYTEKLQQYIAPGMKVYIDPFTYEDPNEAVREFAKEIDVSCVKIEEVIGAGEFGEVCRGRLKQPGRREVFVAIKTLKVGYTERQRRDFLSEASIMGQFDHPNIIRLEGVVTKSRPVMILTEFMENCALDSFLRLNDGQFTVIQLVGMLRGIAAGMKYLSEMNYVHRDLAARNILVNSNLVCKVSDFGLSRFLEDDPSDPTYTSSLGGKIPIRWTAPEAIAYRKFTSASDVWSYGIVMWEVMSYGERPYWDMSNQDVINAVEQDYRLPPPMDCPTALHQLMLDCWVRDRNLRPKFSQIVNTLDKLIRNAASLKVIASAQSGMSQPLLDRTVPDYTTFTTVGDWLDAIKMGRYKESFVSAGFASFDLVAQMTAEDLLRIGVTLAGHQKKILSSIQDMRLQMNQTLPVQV
Chain of Dual serine/threonine and tyrosine protein kinase (Homo sapiens) (Q6XUX3 whole entry): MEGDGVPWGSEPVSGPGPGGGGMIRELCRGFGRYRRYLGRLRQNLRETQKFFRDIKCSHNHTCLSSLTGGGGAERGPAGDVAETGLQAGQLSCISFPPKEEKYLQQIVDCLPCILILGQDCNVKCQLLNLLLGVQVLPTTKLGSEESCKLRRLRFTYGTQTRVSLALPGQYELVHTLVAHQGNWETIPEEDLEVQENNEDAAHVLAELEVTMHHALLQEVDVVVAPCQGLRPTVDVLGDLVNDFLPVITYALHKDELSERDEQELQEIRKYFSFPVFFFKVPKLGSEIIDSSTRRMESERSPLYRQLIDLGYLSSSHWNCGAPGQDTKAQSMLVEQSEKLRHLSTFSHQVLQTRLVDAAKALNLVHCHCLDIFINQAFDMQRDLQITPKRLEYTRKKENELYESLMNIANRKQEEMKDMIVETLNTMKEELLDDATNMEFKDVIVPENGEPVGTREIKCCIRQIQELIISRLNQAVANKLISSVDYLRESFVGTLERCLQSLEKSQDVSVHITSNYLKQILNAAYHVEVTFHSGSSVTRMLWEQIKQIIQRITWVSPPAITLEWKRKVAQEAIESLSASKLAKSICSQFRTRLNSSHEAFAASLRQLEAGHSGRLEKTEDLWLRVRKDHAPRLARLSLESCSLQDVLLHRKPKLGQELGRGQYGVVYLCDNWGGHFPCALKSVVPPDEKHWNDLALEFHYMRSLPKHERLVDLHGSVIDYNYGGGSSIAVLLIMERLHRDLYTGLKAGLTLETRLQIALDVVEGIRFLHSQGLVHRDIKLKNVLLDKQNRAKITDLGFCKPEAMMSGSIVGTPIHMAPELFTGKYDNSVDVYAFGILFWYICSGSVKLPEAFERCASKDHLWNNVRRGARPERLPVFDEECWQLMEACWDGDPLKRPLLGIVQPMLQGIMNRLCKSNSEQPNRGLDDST
Chain of 5'-AMP-activated protein kinase catalytic subunit alpha-1 (Homo sapiens) (Q13131 whole entry, looked up): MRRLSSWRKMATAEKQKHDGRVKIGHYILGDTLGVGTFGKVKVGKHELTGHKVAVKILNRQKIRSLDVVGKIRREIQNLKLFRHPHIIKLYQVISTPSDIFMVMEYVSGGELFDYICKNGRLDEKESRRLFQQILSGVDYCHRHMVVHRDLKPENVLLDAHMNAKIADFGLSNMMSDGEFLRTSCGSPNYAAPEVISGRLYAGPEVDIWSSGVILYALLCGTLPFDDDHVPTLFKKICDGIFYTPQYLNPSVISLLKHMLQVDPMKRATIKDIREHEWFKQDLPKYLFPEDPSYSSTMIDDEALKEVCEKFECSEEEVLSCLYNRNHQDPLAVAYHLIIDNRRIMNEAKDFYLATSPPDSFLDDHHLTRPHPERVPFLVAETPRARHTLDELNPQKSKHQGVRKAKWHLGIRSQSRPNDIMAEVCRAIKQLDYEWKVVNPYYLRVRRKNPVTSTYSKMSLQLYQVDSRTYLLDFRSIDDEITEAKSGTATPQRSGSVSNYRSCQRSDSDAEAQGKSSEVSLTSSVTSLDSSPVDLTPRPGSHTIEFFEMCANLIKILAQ
Chain of Serine/threonine-protein kinase pim-2 (Homo sapiens) (Q9P1W9 whole entry, looked up): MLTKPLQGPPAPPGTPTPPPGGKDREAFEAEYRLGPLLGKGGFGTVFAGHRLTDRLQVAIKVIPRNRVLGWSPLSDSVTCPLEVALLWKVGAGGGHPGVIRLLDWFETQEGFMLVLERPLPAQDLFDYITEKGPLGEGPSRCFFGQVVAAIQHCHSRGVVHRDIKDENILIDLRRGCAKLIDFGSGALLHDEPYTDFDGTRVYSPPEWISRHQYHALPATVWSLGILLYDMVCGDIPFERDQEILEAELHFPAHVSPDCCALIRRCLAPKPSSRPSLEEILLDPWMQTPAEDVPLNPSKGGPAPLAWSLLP
Chain of Mitogen-activated protein kinase 8 (Homo sapiens) (P45983 whole entry): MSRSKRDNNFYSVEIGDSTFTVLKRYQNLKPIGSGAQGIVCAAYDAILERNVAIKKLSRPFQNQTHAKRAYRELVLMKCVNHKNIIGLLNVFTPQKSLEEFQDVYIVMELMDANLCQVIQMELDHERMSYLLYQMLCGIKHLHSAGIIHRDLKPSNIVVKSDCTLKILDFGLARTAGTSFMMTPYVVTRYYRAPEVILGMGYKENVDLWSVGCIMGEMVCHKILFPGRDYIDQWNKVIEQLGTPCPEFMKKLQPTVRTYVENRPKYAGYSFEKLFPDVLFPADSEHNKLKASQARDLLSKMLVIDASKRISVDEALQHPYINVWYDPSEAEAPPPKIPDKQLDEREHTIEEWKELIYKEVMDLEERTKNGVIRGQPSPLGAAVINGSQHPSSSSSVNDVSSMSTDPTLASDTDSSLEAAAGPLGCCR
Chain of Cyclin-dependent kinase 16 (Homo sapiens) (Q00536 whole entry): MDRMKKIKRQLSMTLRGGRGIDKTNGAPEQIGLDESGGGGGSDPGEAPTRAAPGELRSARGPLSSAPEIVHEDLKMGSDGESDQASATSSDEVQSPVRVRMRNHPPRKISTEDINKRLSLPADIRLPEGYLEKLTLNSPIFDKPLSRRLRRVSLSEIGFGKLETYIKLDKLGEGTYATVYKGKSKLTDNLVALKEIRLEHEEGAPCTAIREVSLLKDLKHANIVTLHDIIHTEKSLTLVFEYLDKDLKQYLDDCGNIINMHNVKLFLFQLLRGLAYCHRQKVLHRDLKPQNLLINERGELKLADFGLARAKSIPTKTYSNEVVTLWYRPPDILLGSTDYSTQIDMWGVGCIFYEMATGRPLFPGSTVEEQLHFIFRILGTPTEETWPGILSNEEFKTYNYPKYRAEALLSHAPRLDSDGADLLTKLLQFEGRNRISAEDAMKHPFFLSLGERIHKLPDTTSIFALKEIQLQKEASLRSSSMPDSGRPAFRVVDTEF
Chain of Cathepsin G (Homo sapiens) (P08311 whole entry): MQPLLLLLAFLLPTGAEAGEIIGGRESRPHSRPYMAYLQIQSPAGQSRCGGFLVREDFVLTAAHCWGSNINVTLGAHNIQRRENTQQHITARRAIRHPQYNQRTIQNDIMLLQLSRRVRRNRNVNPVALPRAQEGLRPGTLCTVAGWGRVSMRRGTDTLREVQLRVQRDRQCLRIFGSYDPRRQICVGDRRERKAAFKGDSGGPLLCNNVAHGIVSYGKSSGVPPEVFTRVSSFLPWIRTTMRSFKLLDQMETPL

## CC(C)CC(=O)N1CCc2nc(-c3ccc(Br)cc3)nc(N(C)Cc3ccccc3)c2C1 [THPP-1-NC]
[1]
  Ki: 6890 nM (not active)
[2]
  residual activity: 100%
[3]
  residual activity: 100%
[4]
  residual activity: 100%
[5]
  residual activity: 100%
[6]
  residual activity: 98%
[7]
  residual activity: 100%
[8]
  residual activity: 97%
[9]
  residual activity: 96%
[10]
  residual activity: 100%
[11]
  residual activity: 100%
[12]
  residual activity: 100%
[13]
  residual activity: 100%
[14]
  residual activity: 100%
[15]
  residual activity: 100%
[16]
  residual activity: 58%
[17]
  residual activity: 100%
[18]
  residual activity: 100%
[19]
  residual activity: 97%
[20]
  residual activity: 100%
[21]
  residual activity: 68%
[22]
  inhibition: 0.81%
[23]
  residual activity: 67%
[24]
  residual activity: 100%
[25]
  residual activity: 100%
[26]
  residual activity: 100%
[27]
  residual activity: 100%
[28]
  residual activity: 100%
[29]
  residual activity: 100%
[30]
  residual activity: 100%
[31]
  residual activity: 100%
[32]
  residual activity: 100%
[33]
  residual activity: 100%

## COCCOc1nc(-c2ccc(Cl)nc2)nc2c1CN(C(=O)c1ncn3ccccc13)CC2 [THPP-1]
[1]
  Ki: 116 nM
[34]
  inhibition: 37%
[2]
  residual activity: 95%
[3]
  residual activity: 100%
[4]
  residual activity: 100%
[5]
  residual activity: 100%
[6]
  residual activity: 100%
[7]
  residual activity: 100%
[8]
  residual activity: 100%
[9]
  residual activity: 79%
[35]
  inhibition: -1%
[10]
  residual activity: 100%
[11]
  residual activity: 100%
[12]
  residual activity: 100%
[13]
  residual activity: 98%
[14]
  residual activity: 100%
[15]
  residual activity: 100%
[16]
  residual activity: 60%
[17]
  residual activity: 100%
[18]
  residual activity: 100%
[19]
  residual activity: 99%
[20]
  residual activity: 100%
[21]
  residual activity: 70%
[36]
  inhibition: -3%
[22]
  inhibition: -4.55%
[37]
  inhibition: 17%
[38]
  inhibition: -1%
[39]
  inhibition: -10%
[23]
  residual activity: 65%
[24]
  residual activity: 100%
[25]
  residual activity: 100%
[26]
  residual activity: 100%
[27]
  residual activity: 100%
[28]
  residual activity: 100%
[29]
  residual activity: 100%
[30]
  residual activity: 100%
[31]
  residual activity: 100%
[40]
  inhibition: 2%
[41]
  inhibition: -1%
[32]
  residual activity: 100%
[33]
  residual activity: 100%
[42]
  inhibition: 8%
